Data set [1] deals with T1, recombinant human Cox-2 (r-hu Cox-2) (Homo sapiens, UniProt P35354).
T1 construct: made in house; host or cells: baculovirus/Sf9 insect cells (microsomes)
T1 sequence (P35354 18-604): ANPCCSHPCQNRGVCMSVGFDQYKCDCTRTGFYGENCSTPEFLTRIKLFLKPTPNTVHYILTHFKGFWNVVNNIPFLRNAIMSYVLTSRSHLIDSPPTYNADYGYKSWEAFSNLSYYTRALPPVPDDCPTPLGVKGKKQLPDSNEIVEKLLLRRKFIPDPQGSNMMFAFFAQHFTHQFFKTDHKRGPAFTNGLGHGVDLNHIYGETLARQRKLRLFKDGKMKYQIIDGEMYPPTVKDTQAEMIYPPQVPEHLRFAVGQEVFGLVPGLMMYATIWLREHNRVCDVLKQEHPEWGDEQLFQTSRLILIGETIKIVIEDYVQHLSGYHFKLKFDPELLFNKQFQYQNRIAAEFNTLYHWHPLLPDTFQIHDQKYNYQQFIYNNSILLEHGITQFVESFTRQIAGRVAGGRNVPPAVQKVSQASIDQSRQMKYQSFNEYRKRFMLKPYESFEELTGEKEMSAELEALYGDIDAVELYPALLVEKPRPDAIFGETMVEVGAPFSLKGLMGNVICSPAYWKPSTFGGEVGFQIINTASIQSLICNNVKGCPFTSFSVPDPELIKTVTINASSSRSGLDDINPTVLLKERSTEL
Briefly: Recombinant human PGHS-2 enzyme assay (RHUCX2). The data set is classed as biochemical. The settings on record: for IC50: read-out: RHUCX2 IC50 (parenthetical value); for inhibition at 0.01 µM / inhibition at 0.1 µM / inhibition at 1 µM / inhibition at 10 µM: read-out: RHUCX2 % Inh. at Dose. The essentials: (§1)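 Prostaglandin biosynthesis was measured as PGE2 output, read by enzyme immunoassay after a 2.5-minute room-temperature reaction stopped with HCl and neutralized with NaOH.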

Data set [2] deals with T2, recombinant human Cox-1 (r-hu Cox1) (Homo sapiens, UniProt P23219).
T2 construct: made in house; host or cells: baculovirus/Sf9 insect cells (microsomes)
The experiment in a line: Recombinant human PGHS-1 enzyme assay (RHUCX1). The data set is classed as biochemical. Particulars: read-out: RHUCX1 % Inh. at Dose. An outline of the steps: as §1

SMILES strings stand for the structures.

T2 sequence (P23219 24-599): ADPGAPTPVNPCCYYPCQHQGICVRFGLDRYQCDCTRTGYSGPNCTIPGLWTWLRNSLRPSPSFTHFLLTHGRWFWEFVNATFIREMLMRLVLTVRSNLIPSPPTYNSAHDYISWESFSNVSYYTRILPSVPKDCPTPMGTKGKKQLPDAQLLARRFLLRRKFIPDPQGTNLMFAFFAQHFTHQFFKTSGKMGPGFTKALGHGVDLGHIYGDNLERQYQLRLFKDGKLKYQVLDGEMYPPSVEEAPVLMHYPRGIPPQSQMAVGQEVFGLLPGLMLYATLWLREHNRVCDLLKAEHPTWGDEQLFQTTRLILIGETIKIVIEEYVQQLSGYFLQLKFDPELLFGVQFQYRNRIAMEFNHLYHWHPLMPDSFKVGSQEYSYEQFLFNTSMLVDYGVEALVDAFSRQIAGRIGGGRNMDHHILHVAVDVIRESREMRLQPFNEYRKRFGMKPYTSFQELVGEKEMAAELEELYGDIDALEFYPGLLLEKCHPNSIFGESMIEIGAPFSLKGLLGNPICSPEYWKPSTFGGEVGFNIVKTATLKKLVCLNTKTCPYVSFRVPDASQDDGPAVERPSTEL

With `Cc1ccc(-c2c(-c3ccc(S(C)(=O)=O)cc3)cnn(-c3ccc(F)c(F)c3)c2=O)cc1` [Example 234], the melting point was in the range of 190 to 192 °C. Also, the IC50 in data set [1] is 328 nM. In addition, the inhibition at 100 µM in data set [2] was determined as 0%.
In the same order, the values of `Cc1cc(-c2c(-c3ccc(S(C)(=O)=O)cc3)cnn(-c3ccc(F)c(F)c3)c2=O)ccc1F` [Example 235, 2-(3,4-Difluorophenyl)-4-(4-fluoro-3-methylphenyl)-5-[4-(methylsulfonyl)phenyl]-3(2H)-pyridazinone] are 166 to 168 °C, 210 nM and 22%.
In the same order, the values of `CS(=O)(=O)c1ccc(-c2cnn(CC(F)(F)F)c(=O)c2C2CCCCC2)cc1` [Example 240, 2-(2,2,2-Trifluoroethyl)-4-cyclohexyl-5-[4-(methylsulfonyl)phenyl]-3(2H)-pyridazinone] are 215 to 218 °C, 297 nM and 14%.
Compound `CS(=O)(=O)c1ccc(-c2cnn(-c3ccc(F)c(Cl)c3)c(=O)c2Cc2cccc(F)c2)cc1` [Example 249, 2-(3-Chloro-4-fluorophenyl)-4-(3-fluorobenzyl)-5-[4-(methylsulfonyl)phenyl]-3(2H)-pyridazinone] yielded a melting point of 101 to 103 °C. Also, in data set [1], the inhibition at 0.01 µM is 43%, the inhibition at 0.1 µM came out at 68% and the inhibition at 1 µM is 98%. For the same compound, the inhibition at 100 µM in data set [2] was 6%.
Take `NS(=O)(=O)c1ccc(-c2cnn(-c3ccc(F)cc3)c(=O)c2Cc2cccc(F)c2)cc1` [Example 253, 2-(4-Fluorophenyl)-4-(3-fluorobenzyl)-5-[4-(aminosulfonyl)phenyl]-3(2H)-pyridazinone]: the melting point was in the range of 199 to 202 °C. Besides, the IC50 in data set [1] was found to be 272 nM. In data set [2], the inhibition at 10 µM stood at 29% and the inhibition at 100 µM was 77%.
Compound `CS(=O)(=O)c1ccc(-c2cnn(-c3ccc(F)c(F)c3)c(=O)c2C#Cc2ccccc2)cc1` [Example 254, 2-(3,4-Difluorophenyl)-4-(phenylethynyl)-5-[4-(methylsulfonyl)phenyl]-3(2H)-pyridazinone] gave a melting point of 211 to 213 °C. Moreover, in data set [1], the inhibition at 0.1 µM was determined as 48% and the inhibition at 1 µM stood at 84%. For the same compound, in data set [2], the inhibition at 100 µM was found to be 7%.
On to `CS(=O)(=O)c1ccc(-c2cnn(CC(F)(F)F)c(=O)c2Oc2cccnc2)cc1` [Example 265, 2-(2,2,2-Trifluoroethyl)-4-(3-pyridyloxy)-5-[4-(methylsulfonyl)phenyl]-3(2H)-pyridazinone], for which the melting point is 191 to 193 °C. For the same compound, in data set [1], the inhibition at 0.1 µM was 33%, the inhibition at 1 µM was found to be 48% and the inhibition at 10 µM stood at 53%. Moreover, in data set [2], the inhibition at 100 µM is 8%.
For the compound `CS(=O)(=O)c1ccc(-c2cnn(-c3ccc(F)c(F)c3)c(=O)c2Oc2ccc(Cl)cc2)cc1` [Example 281, 2-(3,4-Difluorophenyl)-4-(4-chlorophenoxy)-5-[4-(methylsulfonyl)phenyl]-3(2H)-pyridazinone], the melting point fell in the range of 192 to 194 °C. Besides, in data set [1], the inhibition at 0.01 µM was 47%, the inhibition at 0.1 µM amounted to 52% and the inhibition at 1 µM came out at 71%. Also, the inhibition at 100 µM in data set [2] came out at 7%.
`CS(=O)(=O)c1ccc(-c2cnn(-c3ccc(F)cc3)c(=O)c2N2CCCCC2)cc1` [Example 355, 2-(4-Fluorophenyl)-4-(1-piperidinyl)-5-[4-(methylsulfonyl)phenyl]-3(2H)-pyridazinone] came in with a melting point of 80 to 100 °C. In addition, in data set [1], the inhibition at 0.1 µM came out at 46%, the inhibition at 1 µM was found to be 66% and the inhibition at 10 µM is 79%. Further, the inhibition at 100 µM in data set [2] turned out to be 0%.
As for `CS(=O)(=O)c1ccc(-c2cnn(-c3cccc(Cl)c3)c(=O)c2Cc2ccc(F)cc2)cc1` [Example 369, 2-(3-Chlorophenyl)-4-(4-fluorobenzyl)-5-[4-(methylsulfonyl)phenyl]-3(2H)-pyridazinone], the melting point lay in the range of 183 to 185 °C. For the same compound, in data set [1], the inhibition at 0.1 µM was determined as 48% and the inhibition at 1 µM is 70%. The inhibition at 100 µM in data set [2] was 0%.
As for `Cc1ccc(-c2c(-c3ccc(S(C)(=O)=O)cc3)cnn(-c3ccc(F)c(F)c3)c2=O)cc1F` [Example 371, 2-(3,4-Difluorophenyl)-4-(3-fluoro-4-methylphenyl)-5-[4-(methylsulfonyl)phenyl]-3(2H)-pyridazinone], the melting point lay in the range of 204 to 206 °C. Moreover, the concentration for half-maximal inhibition (IC50) in data set [1] came to 166 nM. In addition, the inhibition at 100 µM in data set [2] stood at 8%.
With `CS(=O)(=O)c1ccc(-c2cnn(-c3cccc(Cl)c3)c(=O)c2CCc2ccccc2)cc1` [Example 372, 2-(3-Chlorophenyl)-4-(phenethyl)-5-[4-(methylsulfonyl)phenyl]-3(2H)-pyridazinone], the melting point was 142 to 145 °C. Further, in data set [1], the inhibition at 0.1 µM amounted to 59%, the inhibition at 1 µM was 88% and the inhibition at 10 µM worked out at 94%. For the same compound, the inhibition at 100 µM in data set [2] was found to be 0%.
Compound `CS(=O)(=O)c1ccc(-c2cnn(-c3cccc(Cl)c3)c(=O)c2OCc2ccccc2)cc1` [Example 374, 2-(3-Chlorophenyl)-4-(benzyloxy)-5-[4-(methylsulfonyl)phenyl]-3(2H)-pyridazinone] came in with a melting point of 110 to 113 °C. Besides, the IC50 in data set [1] amounted to 20 nM. For the same compound, in data set [2], the inhibition at 100 µM was 2%.
Take `Cc1ccc(-c2c(-c3ccc(S(N)(=O)=O)cc3)cnn(-c3ccc(F)c(F)c3)c2=O)cc1F` [Example 386, 2-(3,4-Difluorophenyl)-4-(3-fluoro-4-methylphenyl)-5-[4-(aminosulfonyl)phenyl]-3(2H)-pyridazinone]: the melting point lay within 198 to 200 °C. For the same compound, in data set [1], the inhibition at 0.01 µM is 58%, the inhibition at 0.1 µM is 63% and the inhibition at 1 µM came to 83%. Besides, in data set [2], the inhibition at 1 µM is 47% and the inhibition at 100 µM turned out to be 58%.
`Cc1cc(-c2c(-c3ccc(S(N)(=O)=O)cc3)cnn(-c3ccc(F)c(F)c3)c2=O)ccc1F` [Example 402, 2-(3,4-Difluorophenyl)-4-(4-fluoro-3-methylphenyl)-5-[4-(aminosulfonyl)phenyl]-3(2H)-pyridazinone] showed a melting point of 243 to 245 °C. For the same compound, in data set [1], the IC50 was 221 nM. For the same compound, in data set [2], the inhibition at 1 µM worked out at 89%.
In turn, `CS(=O)(=O)c1ccc(-c2cnn(-c3cccc(Cl)c3)c(=O)c2Oc2cccc(F)c2)cc1` [Example 411, 2-(3-Chlorophenyl)-4-(3-fluorophenoxy)-5-[4-(methylsulfonyl)phenyl]-3(2H)-pyridazinone] gave a melting point of 178 to 180 °C. Moreover, the concentration for half-maximal inhibition (IC50) in data set [1] was 9 nM. Moreover, in data set [2], the inhibition at 1 µM worked out at 81% and the inhibition at 10 µM worked out at 96%.
The compound `CC(C)CCCOc1c(-c2ccc(S(C)(=O)=O)cc2)cnn(-c2cccc(Cl)c2)c1=O` [Example 413] showed a melting point of 139 to 140 °C. The IC50 in data set [1] was found to be 110 nM. Also, the inhibition at 100 µM in data set [2] turned out to be 0%.
In the same order, the values of `CC(C)CCCc1c(-c2ccc(S(C)(=O)=O)cc2)cnn(-c2ccc(F)cc2)c1=O` [Example 420, 2-(4-Fluorophenyl)-4-(4-methylpentyl)-5-[4-(methylsulfonyl)phenyl]-3(2H)-pyridazinone] are 112 to 115 °C, 323 nM and 29%.
As to `CC(C)=CCOc1c(-c2ccc(S(C)(=O)=O)cc2)cnn(-c2cccc(Cl)c2)c1=O` [Example 423, 2-(3-Chlorophenyl)-4-(3-methyl-2-butenoxy)-5-[4-(methylsulfonyl)phenyl]-3(2H)-pyridazinone], the melting point is 113 to 115 °C. For the same compound, in data set [1], the inhibition at 0.01 µM amounted to 36%, the inhibition at 0.1 µM was found to be 68% and the inhibition at 1 µM worked out at 87%. The inhibition at 100 µM in data set [2] turned out to be 0%.
Consider `C=C(C)CCOc1c(-c2ccc(S(C)(=O)=O)cc2)cnn(-c2ccc(F)cc2)c1=O` [Example 425, 2-(4-Fluorophenyl)-4-(3-methyl-3-butenoxy)-5-[4-(methylsulfonyl)phenyl]-3(2H)-pyridazinone], for which the melting point lay in the range of 109 to 111 °C. In data set [1], the inhibition at 0.01 µM was 31% and the inhibition at 0.1 µM worked out at 69%. Besides, the inhibition at 100 µM in data set [2] was 12%.
`CC(C)=CCCOc1c(-c2ccc(S(C)(=O)=O)cc2)cnn(-c2cccc(Cl)c2)c1=O` [Example 426, 2-(3-Chlorophenyl)-4-(4-methyl-3-pentenyloxy)-5-[4-(methylsulfonyl)phenyl]-3(2H)-pyridaznone] registered a melting point of 110 to 111 °C. The 50% inhibitory concentration (IC50) in data set [1] came to 57 nM. For the same compound, in data set [2], the inhibition at 100 µM was determined as 1%.

What is called IC50 is the concentration that inhibits the measured activity by half. Broadly, the melting point is the temperature of the solid-liquid transition.
